The values below come from patent publication US20030228621A1, “Common ligand universal enzyme assay and compositions for use therein” (priority 2002, published 2003).

One assay deals with DHPR (Escherichia coli, UniProt P04036). The assay can be described thus: Intrinsic fluorescence of the compound upon binding to the enzyme. The settings on record: excitation 365 nm, emission 435 nm. The source says:
It can be used either as a tracer for the screening, with or without being labeled with a detectable moiety of the invention. As such, this compound can be used for screening candidate ligands.

The target of assay [1] is T1, dihydrodipicolinate reductase (DHPR) (Escherichia coli, UniProt P04036). The assay can be described thus: Fluorescence polarization displacement of FITC-NADH from dihydrodipicolinate reductase. It counts as binding. The method, then:
FITC-NADH was dissolved in 10 mM TAPS buffer with 5% NaHCO3, pH=8. The final concentration of FITC-NADH was 150 μM. In later experiments 150 μM FITC-NADH was diluted to the desired concentration in 20 mM Potassium Phosphate buffer, pH=7.4. Fluorescence polarization was monitored using a Beacon 2000 Variable Temperature Fluorescence Polarization System (PanVera Corporation, Madison, Wis.) and an LJL Analyst HT 96-384 (Molecular Devices Corporation, Sunnyvale, Calif.). The concentration of FITC-NADH as fluorescent tracer was selected by measuring fluorescence polarization of varying concentrations of FITC-NADH in 10 mM Potassium Phosphate buffer, pH=7.4. The concentration range was 0.15 nM—15 nM. For the best signal to noise ratio regarding both the horizontal and vertical intensities that contribute to the fluorescence polarization value, a concentration of 25 nM was chosen for FITC-NADH in the majority of experiments.
The fluorescence polarization of solutions of 7 μM dihydrodipicolinate reductase and 25 nM FITC-NADH with NADH was measured. The concentration of dihydrodipicolinate reductase was such that a solution of dihydrodipicolinate reductase and FITC-NADH would give the fluorescence polarization mP value of 220-230 mP. The blank was protein in buffer and NADH. […] The data was fitted to the following equation:
mP=YH′−(YH′−YL)*(1/(1+Kd^app/C))
Kd=Kd^app*(1/(1+A/Kd^tracer))
(§1) where C is the concentration of NADH; A is the concentration of enzyme; YH′ is the polarization for the FITC-NADH at the specified enzyme concentration in the absence of NADH; YL is the polarization for FITC-NADH when fully displaced from the enzyme by NADH; and Kd^tracer is the dissociation constant of the enzyme for FITC-NADH.
The displacement of FITC-NADH from dihydrodipicolinate reductase in the presence of the candidate inhibitor compound bromaminic acid, an NMNH-mimic (nicotinamide mononucleotide mimic), was measured by fluorescence polarization assay. The concentration of dihydrodipicolinate reductase was such that dihydrodipicolinate reductase in the presence of FITC-NADH would give the fluorescence polarization, mP, value of 220-230. Protein in buffer combined with the inhibitor was used as the blank.
The Log(bromaminic acid, μM) versus Polarization (mP) data were fitted to the following equation: […]
as §1
In this assay, enzyme in the presence of the ligand has less FITC-NADPH bound if both of the ligands compete for the same site.
(§2) A population of 620 compounds were screened in the competitive displacement assay described herein. […] These compounds are depicted in FIG. 16.
For orientation: Polarisation of emitted light reports the rotation of a fluorescent probe.

For assay [2], the target named is Deoxy-D-xylulose 5-phosphate reductoisomerase (DOXPR) (Escherichia coli, UniProt P45568). Nature of the assay: Enzyme activity in presence and absence of varying concentration of dye, DOXPR. The class given is biochemical. The settings on record: for IC50: NADPH at sixteen times its Km, read-out: Inhibition (IC50, nM) DOXPR. The method, then: (§3) In search for specific ligands with potent binding to several dehydrogenases we screened our internal enzyme panel. In brief, activity of the enzymes was measured in the presence and absence of the varying concentration of the dyes.
(§4) In this assay, the oxidoreductase common ligand (NADPH) was employed at a concentration sixteen times its Km value. Use of such a high concentration of oxidoreductase common ligand results in a calculated IC50 value at least 17-fold that of the dissociation constant (Kd).

Assay [3] has as its target T2, 3-Hydro-3-methyl-glutaryl-CoA reductase (HMGCoAR) (Homo sapiens, UniProt P04035).
T2 sequence (P04035 1-888): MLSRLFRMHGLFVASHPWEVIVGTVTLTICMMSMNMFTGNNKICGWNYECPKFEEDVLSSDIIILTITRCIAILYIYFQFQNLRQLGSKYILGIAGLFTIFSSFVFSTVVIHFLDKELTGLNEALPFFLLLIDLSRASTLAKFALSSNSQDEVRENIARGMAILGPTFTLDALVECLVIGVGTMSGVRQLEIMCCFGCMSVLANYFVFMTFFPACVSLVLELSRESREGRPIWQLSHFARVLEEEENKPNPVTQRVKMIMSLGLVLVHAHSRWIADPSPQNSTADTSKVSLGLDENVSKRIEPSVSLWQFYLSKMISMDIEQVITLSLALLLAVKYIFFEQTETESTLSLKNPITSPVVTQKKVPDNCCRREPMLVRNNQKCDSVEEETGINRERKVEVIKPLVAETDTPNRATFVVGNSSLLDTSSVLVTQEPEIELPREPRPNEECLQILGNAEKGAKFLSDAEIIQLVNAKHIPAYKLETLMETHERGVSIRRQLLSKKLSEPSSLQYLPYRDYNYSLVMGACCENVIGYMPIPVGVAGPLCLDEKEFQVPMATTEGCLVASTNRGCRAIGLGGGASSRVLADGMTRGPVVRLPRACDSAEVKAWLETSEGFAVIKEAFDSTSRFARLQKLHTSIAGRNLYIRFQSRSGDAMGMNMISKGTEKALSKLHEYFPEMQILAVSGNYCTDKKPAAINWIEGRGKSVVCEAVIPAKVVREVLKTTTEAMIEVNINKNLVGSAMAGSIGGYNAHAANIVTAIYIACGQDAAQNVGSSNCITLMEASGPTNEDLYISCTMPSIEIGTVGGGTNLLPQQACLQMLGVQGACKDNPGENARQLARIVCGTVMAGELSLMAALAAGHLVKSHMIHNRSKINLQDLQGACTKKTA
Nature of the assay: Enzyme activity in presence and absence of varying concentration of dye, HMGCoAR. It counts as biochemical. The conditions noted are these: read-out: Inhibition (IC50, nM) HMGCoAR. On the procedure:
as §3

The subject of the next assay is dehydrogenases. The assay can be described thus: Extent and reversibility of inhibition of the dehydrogenase panel by triazinyl dyes. It counts as biochemical. On the procedure:
as §3
Since all of the dye molecules have a triazinyl reactive group, reversibility of the inhibition was checked.
as §4

Assay [4] concerns the target Enoyl-acyl carrier protein reductase (EACPR) (Escherichia coli, UniProt P0AEK4). Nature of the assay: Enzyme activity in presence and absence of varying concentration of dye, EACPR. The conditions noted are these: read-out: Inhibition (IC50, nM) EACPR. The class given is biochemical. On the procedure: as §3
The target of assay [5] is T1, dihydrodipicolinate reductase (DHPR). The assay can be described thus: Enzyme activity in presence and absence of varying concentration of dye, DHPR. The settings on record: for IC50: read-out: Inhibition (IC50, nM) DHPR. The class given is biochemical. On the procedure:
as §3

Assay [6] concerns the target Lactate dehydrogenase (LDH). Nature of the assay: Enzyme activity in presence and absence of varying concentration of dye, LDH. It counts as biochemical. The conditions noted are these: read-out: Inhibition (IC50, nM) LDH. On the procedure:
as §3

For assay [7], the target named is 1-deoxy-D-xylulose 5-phosphate reductoisomerase (DOXPR) (Escherichia coli, UniProt P45568). Nature of the assay: Displacement of FITC-NADPH from the FITC-NADPH:DOXPR complex (FIG. 14A, 14B). It counts as binding. The settings on record: displacement of FITC-NADPH tracer from DOXPR. The source says: (§5) The competitive binding of the dye common ligands of the present invention can be evaluated by use of a displacement assay. In particular, enzyme in the presence of a competitive ligand will have less FITC-NADPH bound if both ligands compete for the same site. […] The dye common ligands of the present invention can completely displace FITC-NADPH from complexes containing this fluorescent tracer and a dehydrogenase. […] Thus, dye common ligands of the invention are useful in displacement assays to study the activity of an oxidoreductase, particularly those having unknown function.
(§6) In competitive assays, the tested dyes displaced the fluorescent-based tracer FITC-NADPH, implying that the dyes bind to DOXPR at the common ligand site. In this assay, enzyme in the presence of the ligand has less FITC-NADPH bound if both of the ligands compete for the same site. […] Calculated Kd values were based on curve shape and were lower than the experimentally determined IC50s.

The target of a further assay is DOXPR (Escherichia coli, UniProt P45568). Nature of the assay: Displacement of FITC-NADPH from the FITC-NADPH:DOXPR complex. The class given is binding.
Text: as §5, §6, §2

Setting [8] is: 7 μM DHPR, 25 nM FITC-NADH, not corrected for enzyme concentration, read-out: Kapp (Kd app), displacement of FITC-NADH.
Where [9] appears, read: 7 μM DHPR, 25 nM FITC-NADH, read-out: actual Kd after correction for enzyme concentration.
[10] abbreviates: calculated from curve shape, read-out: Kd from displacement experiments with FITC-NADH and DHPR.

Like-named read-outs stand apart in the source and are kept apart here.

T1 sequence (P04036 whole entry): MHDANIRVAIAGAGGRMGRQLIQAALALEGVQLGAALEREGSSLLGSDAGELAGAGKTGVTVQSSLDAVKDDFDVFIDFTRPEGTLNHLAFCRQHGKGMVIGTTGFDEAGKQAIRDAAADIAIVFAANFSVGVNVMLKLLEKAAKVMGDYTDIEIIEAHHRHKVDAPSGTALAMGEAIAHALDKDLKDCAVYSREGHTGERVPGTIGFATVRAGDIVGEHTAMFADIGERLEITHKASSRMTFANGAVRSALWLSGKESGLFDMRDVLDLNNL
Deoxy-D-xylulose 5-phosphate reductoisomerase (DOXPR), sequence (P45568 whole entry): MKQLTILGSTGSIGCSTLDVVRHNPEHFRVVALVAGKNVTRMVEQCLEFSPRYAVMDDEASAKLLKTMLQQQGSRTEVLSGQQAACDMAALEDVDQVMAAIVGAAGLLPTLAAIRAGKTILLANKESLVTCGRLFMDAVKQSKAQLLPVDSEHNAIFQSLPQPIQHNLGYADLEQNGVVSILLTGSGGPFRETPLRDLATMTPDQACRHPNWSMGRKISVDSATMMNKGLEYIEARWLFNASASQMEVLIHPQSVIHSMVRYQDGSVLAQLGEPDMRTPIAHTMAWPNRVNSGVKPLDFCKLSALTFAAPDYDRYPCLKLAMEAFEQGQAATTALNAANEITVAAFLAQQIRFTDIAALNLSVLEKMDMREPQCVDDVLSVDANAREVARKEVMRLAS
DOXPR, sequence (P45568 whole entry): as above
1-deoxy-D-xylulose 5-phosphate reductoisomerase (DOXPR), sequence (P45568 whole entry): as above
Enoyl-acyl carrier protein reductase (EACPR), sequence (P0AEK4 whole entry): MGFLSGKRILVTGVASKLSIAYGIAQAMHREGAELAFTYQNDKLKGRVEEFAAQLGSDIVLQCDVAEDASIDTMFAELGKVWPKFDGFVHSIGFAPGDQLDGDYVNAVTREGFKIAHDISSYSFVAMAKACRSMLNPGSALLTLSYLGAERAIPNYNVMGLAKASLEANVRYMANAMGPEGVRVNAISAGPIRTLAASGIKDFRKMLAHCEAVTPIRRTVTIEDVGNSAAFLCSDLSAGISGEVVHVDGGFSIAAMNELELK
DHPR, sequence (P04036 whole entry): as the sequence (P04036 whole entry) above

On to `O=S(=O)(O)c1cc(Nc2nc(Nc3ccccc3)nc(N(CCO)CCO)n2)ccc1/C=C\c1ccc(Nc2nc(Nc3ccccc3)nc(N(CCO)CCO)n2)cc1S(=O)(=O)O`, for which the “increase in intrinsic fluorescence upon binding to the enzyme” value on DHPR is listed as 3 fold. Also, the Kd in assay [1] (compound from screen of 620 compounds, read-out: kd, tight binding to DHPR) was < 100 nM.
For `NC(=O)C1=CN([C@@H]2O[C@H](COP(=O)(O)OP(=O)(O)OC[C@H]3O[C@@H](n4cnc5c(N)ncnc54)[C@H](O)[C@@H]3O)[C@@H](O)[C@H]2O)C=CC1` [NADH, Reduced nicotinamide adenine dinucleotide], the Kd in [1] (setting [8]) was found to be 1200 ± 150 nM; in [1] (setting [9]) it was 200 nM.
In general, IC50 refers to the concentration that inhibits the measured activity by half. As for `Nc1c(S(=O)(=O)O)cc(Nc2ccc(Nc3nc(Cl)nc(Nc4cccc(S(=O)(=O)O)c4)n3)c(S(=O)(=O)O)c2)c2c1C(=O)c1ccccc1C2=O` [Reactive Blue 2], the IC50 in assay [2] turned out to be 2000 nM; in assay [3], 1000 nM; in assay [4], 2500 nM; in [5], 1100 nM; in [6], 1500 nM. Further, the “reversibility of the inhibition” value in the assay on dehydrogenases is “full reversible inhibition”.
`O=S(=O)(O)c1cc(Nc2nc(Cl)nc(Nc3ccc(Nc4nc(Cl)nc(Nc5cc(S(=O)(=O)O)cc6cc(S(=O)(=O)O)c(N=Nc7ccccc7S(=O)(=O)O)c(O)c56)n4)cc3)n2)c2c(O)c(N=Nc3ccccc3S(=O)(=O)O)c(S(=O)(=O)O)cc2c1` [Reactive Red 120]: the “mode of inhibition versus oxidoreductase common ligand (NADPH)” value in [2] is “competitive”. Besides, the IC50 in assay [2] is 230 nM; in [7], 310 nM; in [3] it was 360 nM; in assay [4], 246 nM; in assay [5], 220 nM; in assay [6], 9.7 nM. In addition, the Kd in assay [7] (calculated, based on curve shape) was 5.8 nM; in assay [1] (setting [10]), 54 nM. The “displacement of FITC-NADPH from the FITC-NADPH:DOXPR complex” value at DOXPR is “completely displaced”. The “reversibility of the inhibition” value in the assay with dehydrogenases was “full reversible inhibition”.
Regarding `Nc1c(S(=O)(=O)O)cc(Br)c2c1C(=O)c1ccccc1C2=O` [bromaminic acid], the Kd was 30000 ± 2200 nM in assay [1] (setting [8]) and 5000 nM in [1] (setting [9]).
For Reactive Green 5, the “mode of inhibition versus oxidoreductase common ligand (NADPH)” value in assay [2] was “competitive”. Further, the “displacement of FITC-NADPH from the FITC-NADPH:DOXPR complex” value at DOXPR is “completely displaced”. Moreover, the Kd in assay [1] (setting [10]) was 15 nM. The values for the IC50 in [3], in assay [5] and in [6] were 44 nM, 230 nM and 590 nM, respectively. The “reversibility of the inhibition” value in the assay with dehydrogenases was “full reversible inhibition”.
In the case of Sulphophthalocyanine, the “binding to DOXPR” value in [2] (tested for inhibition of DOXPR) is reported as “binds”. In assay [5] (tested for inhibition of DHPR), the “binding to DHPR” value is “binds”.
